Values quoted from earlier work, collected in US20170246117A1, “INJECTABLE MICROPARTICLES FOR HYPER-LOCALIZED RELEASE OF THERAPEUTIC AGENTS” (priority 2014, published 2017).

Assays:
[1] = reported, Mollmann et al. 1998
[2] = 40 mg, human subjects; Derendorf et al. 1986; FIG. 7

SMILES | EC50 [1] [ng/mL] | release profile after intra-articular administration [2]
CCC(=O)O[C@]1(C(=O)SCF)[C@H](C)C[C@H]2[C@@H]3C[C@H](F)C4=CC(=O)C=C[C@]4(C)[C@@]3(F)[C@@H](O)C[C@@]21C [fluticasone propionate] | 0.007 to 0.03 | –
CC(C)(C)CC(=O)OCC(=O)[C@@]12OC(C)(C)O[C@@H]1C[C@H]1[C@@H]3CCC4=CC(=O)C=C[C@]4(C)[C@@]3(F)[C@@H](O)C[C@@]12C [triamcinolone hexacetonide] | – | significant initial burst followed by rapid decline
